In PMC9699427 (Viruses, 2022):

Legend:
[1] = Cytotoxicity, MTT assay, C8166 cells; format: cell-based; settings: human, three days, read-out: CC50 (Mean ± SD)
HIV-1IIIB [2] = assay: Anti-HIV-1 activity, MTT protection of MT-4 cells; format: cell-based; settings: Human immunodeficiency virus 1, MT4, MT-4, MTT
CYP3A4M = CYP3A4M (Homo sapiens, UniProt P08684); assay: Cytochrome P450 inhibition, human liver microsomes, midazolam
HIV-1IIIB [3] = assay: Anti-HIV-1 activity in the presence of human serum, p24 in C8166; settings: Human immunodeficiency virus 1, C8166, HIV-1IIIB

CYP3A4M, sequence (P08684 whole entry): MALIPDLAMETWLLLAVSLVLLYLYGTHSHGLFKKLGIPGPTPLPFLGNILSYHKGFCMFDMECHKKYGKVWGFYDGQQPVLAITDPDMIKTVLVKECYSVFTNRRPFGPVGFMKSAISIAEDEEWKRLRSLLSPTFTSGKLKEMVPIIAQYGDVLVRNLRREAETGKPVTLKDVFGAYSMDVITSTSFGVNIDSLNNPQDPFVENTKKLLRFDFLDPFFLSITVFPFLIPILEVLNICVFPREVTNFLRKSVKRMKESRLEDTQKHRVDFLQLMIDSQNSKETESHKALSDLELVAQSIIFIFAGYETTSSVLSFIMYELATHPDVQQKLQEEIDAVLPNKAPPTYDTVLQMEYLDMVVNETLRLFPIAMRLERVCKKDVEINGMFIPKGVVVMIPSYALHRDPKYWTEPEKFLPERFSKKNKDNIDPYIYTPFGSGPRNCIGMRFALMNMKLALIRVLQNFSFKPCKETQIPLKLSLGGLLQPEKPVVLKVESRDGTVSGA

## Cc1cc(C#N)cc(C)c1Oc1nc(NC2CCN(Cc3ccc(S(N)(=O)=O)cc3)CC2)nc2ccsc12 [K-5a2]
[1]
  CC50 at 3 days: > 50000 nM
HIV-1IIIB [2]
  EC50: 1.74 ± 0.11 nM
CYP3A4M
  IC50: 18900 nM
HIV-1IIIB [3]; C8166, p24, 20% human serum
  EC50: 7.83 ± 1.73 nM
HIV-1IIIB [3]; C8166, p24, 40% human serum
  EC50: 7.87 ± 6.01 nM
